Key:
[1] = target: Protein polybromo-1 (Homo sapiens) (UniProt Q86U86); conditions: dose 10.0 µM
[2] = target: Protein polybromo-1 (Homo sapiens) (UniProt Q86U86); conditions: dose 10.0 µM; remark: listed apart in the source
[3] = target: Beta-2 adrenergic receptor (Homo sapiens) (UniProt P07550); assay: Inhibition of Beta2 (unknown origin) at 10 uM relative to control
[4] = target: T1, Bromodomain-containing protein 1 (Homo sapiens) (UniProt O95696); assay: Binding affinity to BRPF2 (unknown origin) assessed as association constant at 12 uM by Isothermal titration calorimetry
T1 sequence (whole entry): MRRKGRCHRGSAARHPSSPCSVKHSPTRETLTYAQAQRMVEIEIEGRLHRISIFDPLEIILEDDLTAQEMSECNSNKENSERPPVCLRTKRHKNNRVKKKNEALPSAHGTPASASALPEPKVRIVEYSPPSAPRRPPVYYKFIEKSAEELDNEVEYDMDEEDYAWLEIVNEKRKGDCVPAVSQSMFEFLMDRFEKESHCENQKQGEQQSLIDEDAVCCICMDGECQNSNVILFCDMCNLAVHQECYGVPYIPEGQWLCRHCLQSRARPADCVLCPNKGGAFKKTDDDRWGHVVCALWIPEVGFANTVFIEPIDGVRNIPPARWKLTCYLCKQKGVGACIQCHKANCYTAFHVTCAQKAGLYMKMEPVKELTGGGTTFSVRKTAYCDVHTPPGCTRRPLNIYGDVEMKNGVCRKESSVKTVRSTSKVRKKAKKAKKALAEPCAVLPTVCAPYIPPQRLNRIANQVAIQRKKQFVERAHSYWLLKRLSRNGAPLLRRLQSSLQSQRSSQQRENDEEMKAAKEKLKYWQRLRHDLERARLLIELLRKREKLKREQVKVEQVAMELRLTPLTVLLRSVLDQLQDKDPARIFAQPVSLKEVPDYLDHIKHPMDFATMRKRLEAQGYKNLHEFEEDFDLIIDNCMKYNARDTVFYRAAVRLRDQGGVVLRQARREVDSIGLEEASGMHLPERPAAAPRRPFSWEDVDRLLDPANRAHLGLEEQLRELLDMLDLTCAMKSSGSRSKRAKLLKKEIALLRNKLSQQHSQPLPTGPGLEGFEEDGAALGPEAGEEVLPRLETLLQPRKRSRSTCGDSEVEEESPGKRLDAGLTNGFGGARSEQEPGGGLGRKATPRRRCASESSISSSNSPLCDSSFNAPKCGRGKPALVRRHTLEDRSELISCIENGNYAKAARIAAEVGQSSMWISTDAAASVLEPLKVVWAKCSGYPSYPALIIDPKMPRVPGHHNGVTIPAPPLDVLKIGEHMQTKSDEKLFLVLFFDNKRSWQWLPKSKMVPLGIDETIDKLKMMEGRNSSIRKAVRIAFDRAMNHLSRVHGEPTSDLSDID

[5] = target: T1, Bromodomain-containing protein 1 (Homo sapiens); assay: Binding affinity to BRPF2 (unknown origin) assessed as change in entropy at 12 uM by Isothermal titration calorimetry
[6] = target: Bromodomain adjacent to zinc finger domain protein 2A (Homo sapiens) (UniProt Q9UIF9); conditions: dose 10.0 µM
[7] = target: Transcription initiation factor TFIID subunit 1 (Homo sapiens) (UniProt P21675); conditions: dose 10.0 µM
Sequence of Transcription initiation factor TFIID subunit 1 (Homo sapiens) (P21675 whole entry): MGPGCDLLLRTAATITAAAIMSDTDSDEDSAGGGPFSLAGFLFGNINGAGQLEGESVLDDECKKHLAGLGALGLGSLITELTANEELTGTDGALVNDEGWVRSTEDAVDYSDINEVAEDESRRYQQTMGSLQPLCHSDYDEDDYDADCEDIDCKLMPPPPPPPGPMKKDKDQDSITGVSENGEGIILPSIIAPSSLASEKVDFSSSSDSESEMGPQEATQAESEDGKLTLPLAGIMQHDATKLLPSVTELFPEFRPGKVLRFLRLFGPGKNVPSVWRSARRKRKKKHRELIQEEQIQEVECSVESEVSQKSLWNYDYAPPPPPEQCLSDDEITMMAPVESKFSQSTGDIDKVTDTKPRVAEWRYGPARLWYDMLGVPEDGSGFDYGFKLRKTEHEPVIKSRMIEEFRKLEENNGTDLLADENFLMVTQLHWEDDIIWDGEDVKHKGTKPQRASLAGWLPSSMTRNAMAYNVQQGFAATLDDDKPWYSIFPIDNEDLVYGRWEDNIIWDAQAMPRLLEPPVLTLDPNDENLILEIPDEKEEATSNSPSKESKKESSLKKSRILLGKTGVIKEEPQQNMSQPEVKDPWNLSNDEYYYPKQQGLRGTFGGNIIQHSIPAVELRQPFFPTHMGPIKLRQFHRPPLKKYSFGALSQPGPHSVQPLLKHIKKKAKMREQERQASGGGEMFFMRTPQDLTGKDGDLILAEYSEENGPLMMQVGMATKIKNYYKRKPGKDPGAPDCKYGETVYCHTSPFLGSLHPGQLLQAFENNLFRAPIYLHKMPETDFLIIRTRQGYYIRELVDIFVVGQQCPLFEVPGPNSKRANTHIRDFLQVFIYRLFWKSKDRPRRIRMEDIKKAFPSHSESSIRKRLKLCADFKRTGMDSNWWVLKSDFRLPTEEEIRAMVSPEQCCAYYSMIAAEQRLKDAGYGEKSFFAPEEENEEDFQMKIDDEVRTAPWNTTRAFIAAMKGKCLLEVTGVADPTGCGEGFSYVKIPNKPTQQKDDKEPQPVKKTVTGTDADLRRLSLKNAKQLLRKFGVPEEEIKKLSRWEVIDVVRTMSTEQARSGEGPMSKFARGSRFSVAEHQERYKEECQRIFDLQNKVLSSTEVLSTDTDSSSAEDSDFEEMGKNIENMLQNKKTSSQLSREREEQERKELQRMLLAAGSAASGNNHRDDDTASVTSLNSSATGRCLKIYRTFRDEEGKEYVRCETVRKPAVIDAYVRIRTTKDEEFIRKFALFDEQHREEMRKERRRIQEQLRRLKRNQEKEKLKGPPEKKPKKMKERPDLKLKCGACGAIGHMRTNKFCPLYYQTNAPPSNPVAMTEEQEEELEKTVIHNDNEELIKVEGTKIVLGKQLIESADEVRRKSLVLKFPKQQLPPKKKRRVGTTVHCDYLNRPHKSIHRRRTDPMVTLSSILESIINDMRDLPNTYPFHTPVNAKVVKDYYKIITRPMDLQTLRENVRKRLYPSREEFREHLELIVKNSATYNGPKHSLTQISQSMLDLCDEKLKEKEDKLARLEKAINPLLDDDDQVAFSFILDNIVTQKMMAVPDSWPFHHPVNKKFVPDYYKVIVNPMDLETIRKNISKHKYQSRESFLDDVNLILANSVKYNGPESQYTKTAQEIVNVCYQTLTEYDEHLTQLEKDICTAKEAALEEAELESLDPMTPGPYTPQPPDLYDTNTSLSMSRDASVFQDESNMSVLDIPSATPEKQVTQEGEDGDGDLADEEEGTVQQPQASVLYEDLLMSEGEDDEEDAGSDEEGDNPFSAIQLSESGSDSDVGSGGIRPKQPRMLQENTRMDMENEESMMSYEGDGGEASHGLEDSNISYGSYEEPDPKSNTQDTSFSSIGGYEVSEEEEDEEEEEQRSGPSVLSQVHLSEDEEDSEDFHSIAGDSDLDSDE

[8] = target: Adrenergic receptor alpha-2 (Homo sapiens) (UniProt P08913+P18825+P18089); assay: Binding affinity to Alpha 2 receptor (unknown origin) assessed as specific binding at 10 uM relative to control; type: protein assay
[9] = target: Bromodomain-containing protein 2 (Homo sapiens) (UniProt P25440); conditions: dose 10.0 µM
Peregrin (Homo sapiens) = target: T2, Peregrin (Homo sapiens) (UniProt P55201); assay: Binding affinity to […] (unknown origin) assessed as change in entropy at 17 uM by Isothermal titration calorimetry
T2 sequence (whole entry): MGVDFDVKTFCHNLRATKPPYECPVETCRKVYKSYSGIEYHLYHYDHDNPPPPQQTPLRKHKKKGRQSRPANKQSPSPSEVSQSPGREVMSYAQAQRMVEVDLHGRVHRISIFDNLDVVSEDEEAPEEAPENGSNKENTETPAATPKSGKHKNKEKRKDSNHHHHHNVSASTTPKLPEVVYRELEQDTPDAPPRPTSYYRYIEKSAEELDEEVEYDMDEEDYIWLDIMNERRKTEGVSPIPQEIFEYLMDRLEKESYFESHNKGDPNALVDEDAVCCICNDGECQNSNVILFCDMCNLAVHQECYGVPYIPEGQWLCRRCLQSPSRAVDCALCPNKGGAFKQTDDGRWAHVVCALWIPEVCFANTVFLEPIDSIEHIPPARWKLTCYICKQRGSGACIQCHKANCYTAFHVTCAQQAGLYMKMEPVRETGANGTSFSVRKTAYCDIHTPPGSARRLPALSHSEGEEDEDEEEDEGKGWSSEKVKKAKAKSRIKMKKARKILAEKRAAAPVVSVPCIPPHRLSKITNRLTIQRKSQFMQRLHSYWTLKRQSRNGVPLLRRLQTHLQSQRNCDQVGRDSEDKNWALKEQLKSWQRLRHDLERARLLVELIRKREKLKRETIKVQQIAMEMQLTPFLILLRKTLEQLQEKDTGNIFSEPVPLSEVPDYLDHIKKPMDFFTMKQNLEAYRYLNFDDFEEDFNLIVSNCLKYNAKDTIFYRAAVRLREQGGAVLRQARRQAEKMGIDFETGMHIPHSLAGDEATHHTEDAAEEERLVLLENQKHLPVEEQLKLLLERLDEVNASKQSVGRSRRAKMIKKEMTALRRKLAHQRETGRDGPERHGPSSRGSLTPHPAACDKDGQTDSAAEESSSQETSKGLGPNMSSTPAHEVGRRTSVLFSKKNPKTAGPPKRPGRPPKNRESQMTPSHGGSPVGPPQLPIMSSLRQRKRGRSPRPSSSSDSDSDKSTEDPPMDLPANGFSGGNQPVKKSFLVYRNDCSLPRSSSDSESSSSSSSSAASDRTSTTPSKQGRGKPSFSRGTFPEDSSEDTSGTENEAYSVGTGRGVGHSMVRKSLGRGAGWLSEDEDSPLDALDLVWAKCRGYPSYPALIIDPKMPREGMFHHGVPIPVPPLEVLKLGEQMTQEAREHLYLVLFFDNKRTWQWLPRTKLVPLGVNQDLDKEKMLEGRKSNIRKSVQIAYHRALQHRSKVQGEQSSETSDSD

[10] = target: Bromodomain testis-specific protein (Homo sapiens) (UniProt Q58F21); conditions: dose 10.0 µM
[11] = target: 5-hydroxytryptamine receptor 7 (Homo sapiens) (UniProt P34969); assay: Inhibition of 5HT7 (unknown origin) at 10 uM relative to control
Sequence of 5-hydroxytryptamine receptor 7 (Homo sapiens) (P34969 whole entry): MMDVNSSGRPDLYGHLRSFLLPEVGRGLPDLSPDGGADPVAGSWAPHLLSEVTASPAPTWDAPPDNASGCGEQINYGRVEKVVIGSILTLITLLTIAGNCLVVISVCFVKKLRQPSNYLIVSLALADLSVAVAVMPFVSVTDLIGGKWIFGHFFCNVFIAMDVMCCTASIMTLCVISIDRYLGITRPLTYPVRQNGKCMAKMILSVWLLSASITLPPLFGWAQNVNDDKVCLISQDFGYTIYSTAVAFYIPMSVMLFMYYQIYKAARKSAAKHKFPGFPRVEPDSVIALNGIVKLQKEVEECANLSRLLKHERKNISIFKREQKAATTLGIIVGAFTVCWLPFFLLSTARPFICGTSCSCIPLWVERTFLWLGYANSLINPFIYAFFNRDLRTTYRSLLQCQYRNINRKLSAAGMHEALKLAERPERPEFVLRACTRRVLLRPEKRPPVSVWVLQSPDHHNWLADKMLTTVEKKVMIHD

[12] = target: Bromodomain-containing protein 9 (Homo sapiens) (UniProt Q9H8M2); conditions: dose 10.0 µM
Sequence of Bromodomain-containing protein 9 (Homo sapiens) (Q9H8M2 whole entry): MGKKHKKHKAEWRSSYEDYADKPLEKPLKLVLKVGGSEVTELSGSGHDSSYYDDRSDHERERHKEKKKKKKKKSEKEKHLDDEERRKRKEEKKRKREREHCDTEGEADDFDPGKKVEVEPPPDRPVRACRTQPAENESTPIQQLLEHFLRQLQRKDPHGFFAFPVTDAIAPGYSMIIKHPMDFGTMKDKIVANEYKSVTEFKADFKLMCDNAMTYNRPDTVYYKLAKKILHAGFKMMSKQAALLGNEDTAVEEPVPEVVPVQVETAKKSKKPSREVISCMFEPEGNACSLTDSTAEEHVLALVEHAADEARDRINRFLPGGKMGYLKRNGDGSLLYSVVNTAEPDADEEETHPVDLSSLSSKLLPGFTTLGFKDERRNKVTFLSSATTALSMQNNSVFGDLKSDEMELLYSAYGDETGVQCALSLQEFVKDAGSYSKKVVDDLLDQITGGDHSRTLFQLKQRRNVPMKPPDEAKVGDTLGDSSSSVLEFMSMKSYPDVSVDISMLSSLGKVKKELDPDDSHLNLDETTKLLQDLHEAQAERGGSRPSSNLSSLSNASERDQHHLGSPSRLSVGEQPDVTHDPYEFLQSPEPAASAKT

[13] = target: Histone acetyltransferase KAT2B (Homo sapiens) (UniProt Q92831); conditions: dose 10.0 µM

Sequence of Protein polybromo-1 (Homo sapiens) (Q86U86 whole entry): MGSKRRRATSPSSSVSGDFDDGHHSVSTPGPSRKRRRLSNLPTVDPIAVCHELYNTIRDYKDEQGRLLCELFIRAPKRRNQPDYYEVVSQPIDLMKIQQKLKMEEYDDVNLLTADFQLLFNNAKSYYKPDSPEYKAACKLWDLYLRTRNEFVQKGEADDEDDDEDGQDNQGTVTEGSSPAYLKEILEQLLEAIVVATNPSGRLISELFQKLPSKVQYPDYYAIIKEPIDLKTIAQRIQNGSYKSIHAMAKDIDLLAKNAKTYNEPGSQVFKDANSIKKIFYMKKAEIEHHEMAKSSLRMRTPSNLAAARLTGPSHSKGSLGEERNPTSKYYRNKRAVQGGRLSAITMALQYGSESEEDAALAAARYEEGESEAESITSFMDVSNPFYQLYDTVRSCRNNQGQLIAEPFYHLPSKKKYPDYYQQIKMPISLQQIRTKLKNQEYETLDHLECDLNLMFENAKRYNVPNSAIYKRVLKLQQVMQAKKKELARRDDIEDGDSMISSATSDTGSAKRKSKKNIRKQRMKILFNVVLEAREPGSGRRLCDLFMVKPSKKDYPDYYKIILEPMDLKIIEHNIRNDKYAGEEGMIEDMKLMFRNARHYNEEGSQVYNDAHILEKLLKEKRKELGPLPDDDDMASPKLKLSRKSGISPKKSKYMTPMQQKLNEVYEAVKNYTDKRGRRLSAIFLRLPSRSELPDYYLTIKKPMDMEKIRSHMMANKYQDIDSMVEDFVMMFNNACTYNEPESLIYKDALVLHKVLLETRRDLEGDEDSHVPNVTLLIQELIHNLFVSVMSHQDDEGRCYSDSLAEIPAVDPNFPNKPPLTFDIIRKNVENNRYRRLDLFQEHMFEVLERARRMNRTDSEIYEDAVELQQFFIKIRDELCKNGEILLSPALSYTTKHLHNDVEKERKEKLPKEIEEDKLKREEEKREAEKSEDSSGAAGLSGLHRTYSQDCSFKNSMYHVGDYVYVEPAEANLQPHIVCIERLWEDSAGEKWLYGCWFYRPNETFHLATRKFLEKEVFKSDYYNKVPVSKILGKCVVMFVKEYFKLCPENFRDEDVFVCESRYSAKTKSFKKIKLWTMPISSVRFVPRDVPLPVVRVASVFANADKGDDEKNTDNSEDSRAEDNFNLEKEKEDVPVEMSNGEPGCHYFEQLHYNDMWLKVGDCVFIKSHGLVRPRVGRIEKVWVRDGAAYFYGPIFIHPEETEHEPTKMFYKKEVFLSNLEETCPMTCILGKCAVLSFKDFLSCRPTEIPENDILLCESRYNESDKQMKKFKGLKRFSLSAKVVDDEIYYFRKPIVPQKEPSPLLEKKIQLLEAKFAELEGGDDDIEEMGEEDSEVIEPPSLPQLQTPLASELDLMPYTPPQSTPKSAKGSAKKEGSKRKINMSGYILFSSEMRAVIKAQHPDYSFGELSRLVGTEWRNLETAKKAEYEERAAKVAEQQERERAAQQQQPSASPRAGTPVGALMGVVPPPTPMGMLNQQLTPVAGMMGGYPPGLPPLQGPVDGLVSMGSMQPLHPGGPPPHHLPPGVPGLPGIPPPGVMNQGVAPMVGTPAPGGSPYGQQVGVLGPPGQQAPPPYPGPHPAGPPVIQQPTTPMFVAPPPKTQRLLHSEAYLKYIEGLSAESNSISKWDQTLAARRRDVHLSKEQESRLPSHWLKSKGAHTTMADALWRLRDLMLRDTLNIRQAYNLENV
Sequence of Beta-2 adrenergic receptor (Homo sapiens) (P07550 whole entry, looked up): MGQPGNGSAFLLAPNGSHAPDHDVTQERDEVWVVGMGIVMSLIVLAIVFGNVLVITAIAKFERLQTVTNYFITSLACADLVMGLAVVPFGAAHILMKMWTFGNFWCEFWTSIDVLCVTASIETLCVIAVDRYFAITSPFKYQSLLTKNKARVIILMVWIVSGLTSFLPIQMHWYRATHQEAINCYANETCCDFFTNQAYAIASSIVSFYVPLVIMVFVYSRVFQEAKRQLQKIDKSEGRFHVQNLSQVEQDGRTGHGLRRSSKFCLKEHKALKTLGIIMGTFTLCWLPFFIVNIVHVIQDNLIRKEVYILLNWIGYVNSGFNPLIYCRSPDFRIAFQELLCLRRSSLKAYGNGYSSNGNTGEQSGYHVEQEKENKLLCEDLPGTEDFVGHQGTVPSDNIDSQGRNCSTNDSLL

## COc1cc2c(cc1NS(=O)(=O)c1ccc(Br)cc1C)n(C)c(=O)n2C
[1]
  ΔTm: 0.4 °C
[2]
  ΔTm: 0.2 °C
[3]
  inhibition: 8%
[4]
  Ka: 1.98 10^6 M^-1
[5]
  deltaS: -0.004 kcal/mol/K
[6]
  ΔTm: 0.2 °C
[7]
  ΔTm: 0.2 °C
[8]
  Activity: 112%
[9]
  ΔTm: 0.8 °C
Peregrin (Homo sapiens)
  deltaS: -0.012 kcal/mol/K
[10]
  ΔTm: 0.4 °C
[11]
  inhibition: 2%
[12]
  ΔTm: 1 °C
[13]
  ΔTm: 0.3 °C
